# Laboratory results reported in patent publication EP4813979A1, “COMPOUND FOR EGFR PROTEIN DEGRADATION AND USE THEREOF” (TYK Medicines, Inc., priority 2023, dated 2025).
# pIC50: −log10 of the molar value.
# What was measured:
# A549 = assay: Cell anti-proliferation experiment (CTG); format: cell-based; settings: Homo sapiens, A549, 72 h, A549 (wild-type EGFR)
# From the text: (§1) H1975 has an EGFR: T790M/L858R double mutation, PC-9 has an EGFR exon 19 deletion, and HCC827 has an exon 19 deletion mutation. Baf3-19del- T790M -C797S (Baf3-DTC) is a stable Ba/F3 clone expressing exogenous EGFR gene bearing T790M, C797S, and […] triple amino acid mutations, purchased from KYinno. Baf3-L858R-T790M - C797S (Baf3-LTC) is a stable Ba/F3 clone expressing exogenous EGFR gene bearing […], T790M, and C797S triple mutations, purchased from KYinno. A549 is a wild-type EGFR, purchased from Nanjing Kebai Biotechnology. A431 is a wild-type EGFR, purchased from Shanghai Xinyu Biotechnology. CellCounting-Lite2.0, Trypsin EDTA, 37°C CO2 incubator, cell counter, EnVision Serial No. 1050454.
# (§2) • A) Digested logarithmic phase cells with Trypsin EDTA, added culture medium to stop the reaction, and mixing well with a pipette to prepare a cell suspension. • B) Used Vi-cell to determine cell concentration, and prepared a suspension of 15,000-25,000 cells per milliliter according to the experimental purpose and cell characteristics. • C) After prepared the cell suspension, mixed it gently and added 100 µL to each well, so that the cell density to be tested is 1500-2500 per well.
# (§3) • A) Weighed approximately 2 mg the compound and calculated the required volume of DMSO according to the formula: Compound mass (mg) * Compound purity (%) / Compound molecular weight * 1000. • B) Placed the inoculated cell culture plate into an incubator and incubated for about 24 hours. Then added compounds of varying concentrations. • C) Diluted the 10mM compound stock solution to […] with culture medium, and added the […] compound solution to the second column of the deep well plate in sequence, and added […] culture medium containing 0.5% DMSO to the third to eleventh columns. • D) Gradient dilution: Taked 125 µL solution from the second column and added it to the third column, mix well; then taked 125 µL solution from the third column and added it to the fourth column, repeated this operation until the tenth column. • E) Used a multichannel pipette, aspirated 25 µL the compound from the deep-well plate and added it to a 96-well culture plate. Repeated this process three times for each compound on the 96-well plate. This will ultimately create a concentration gradient of up to 10,000 nM at a 1:4 ratio on the 96-well plate.
# (§4) • A) The effects of the compound were observed under an inverted microscope after the 96-well plate was incubated in an incubator for 72 hours. • B) Added 25 µL CTG solution to each well, placed on a shaker for 10 minutes, and read the […] of each well.
# (§5) Calculate the % Cell Viability using the following formula: %Cell Viability = 100% × (Lum_Sample−Lum_LC)/(Lum_HC−Lum_LC) [formula] • Lum_HC: Cell readings from the 0.1% DMSO control group • Lum_Sample: Cell readings with added compound • Lum_LC: Blank culture medium reading
# (§6) The IC50 value was obtained by curve fitting using GraphPad Prism 8 software.
# [1] = tested on: Baf3-19del- T790M -C797S (Baf3-DTC); assay: Cell anti-proliferation experiment (CTG); format: cell-based; settings: 72 h
# From the text: as §1, §2, §3, §4, §5, §6
# [2] = tested on: Baf3-L858R-T790M - C797S (Baf3-LTC); assay: Cell anti-proliferation experiment (CTG); format: cell-based; settings: 72 h
# From the text: as §1, §2, §3, §4, §5, §6
# PC-9 = assay: Cell anti-proliferation experiment (CTG); format: cell-based; settings: Homo sapiens, PC-9, 72 h, PC-9 (EGFR exon 19 deletion)
# From the text: as §1, §2, §3, §4, §5, §6
# HCC827 = assay: Cell anti-proliferation experiment (CTG); format: cell-based; settings: Homo sapiens, HCC827, 72 h, HCC827 (exon 19 deletion)
# From the text: as §1, §2, §3, §4, §5, §6
# A431 = assay: Cell anti-proliferation experiment (CTG); format: cell-based; settings: Homo sapiens, A-431, 72 h, A431 (wild-type EGFR)
# From the text: as §1, §2, §3, §4, §5, §6
# H1975 = assay: Cell anti-proliferation experiment (CTG); format: cell-based; settings: Homo sapiens, NCI-H1975, 72 h, H1975 (EGFR T790M/L858R)
# From the text: as §1, §2, §3, §4, §5, §6
# [3] = Pharmacokinetic tests in male SD rats; format: in vivo; settings: oral gavage (po), 10 mg/kg, plasma
# Procedure: Three healthy adult male SD rats, 6-8 weeks old, weighing 200-300 grams.
# EDTA-Na2 anticoagulant, weighed 11.2 g EDTA-Na2 and placed it in a reagent bottle. Added 100 mL physiological saline and shaked to dissolve completely. After preparation, dispensed into 1.5 mL centrifuge tubes, each containing approximately 20 µL, for whole blood sample collection.
# Accurately weighed approximately 10 mg the sample to be tested, added 10% of the converted total volume of DMSO to dissolve it, and then slowly added 90% of the total volume of 0.5% MC solvent while stirring. Sonicated and vortex to mix thoroughly to obtain a solution of the preparation that is considered to be homogeneous, with a concentration of 1 mg/mL. Prepared fresh immediately before use.
# Piped 0.2 mL the sample into a 1.5 mL centrifuge tube and store at -80°C for analysis of the concentration of the drug solution.
# Animals were housed in rat cages and fasted for at least 10 hours starting the day before the experiment, but water was allowed. On the day of the experiment, each animal was weighed and marked on its tail. Blank blood samples were collected before drug administration. Blood was collected via tail vein.
# • Route of administration: Oral gavage (po); • Dosage concentration: 1 mg/ml; • Dosage: 10 mg/kg; • Dosage volume: 10 mL/kg; • Procedure: Hold the rat upright with your left hand wearing a bite-proof glove, insert the gavage needle into the throat through the mouth, and insert the needle when feeling no obvious resistance. Then inject the drug into the stomach.
# Whole blood (0.1-0.2 ml) was collected from test animals at 0.5 h, 1 h, 2 h, 4 h, 6 h, 8 h, 12 h, and 24 h after drug administration. The samples were placed in EDTA-Na 2 anticoagulant tubes, inverted 3-4 times to mix, and centrifuged at 4°C, 2000 g for 5 min to separate the supernatant plasma. The plasma was promptly transferred to -80°C for storage until analysis. Blood was collected via tail vein.
# A quantitative detection method for the analyte was established using Shimadzu liquid chromatography and Triple Quad™ 6500+AB mass spectrometry. The concentration of the parent drug in plasma was analyzed. The analytical results were controlled for variation using quality control samples, with the accuracy of the quality control samples expected to be between 80% and 120%.
# The main pharmacokinetic parameters were calculated using a non-compartmental model in Winnonlin Phoenix software. These parameters included the area under the curve (AUC(0-t) and AUC(0-∞)), elimination half-life (T1/2), maximum plasma concentration (Cmax ), and time to reach maximum plasma concentration (Tmax).The results are shown in Table 3.
Compound,pIC50 (A549; class symbol),pIC50 ([1]; class symbol),pIC50 ([2]; class symbol),pIC50 (PC-9; class symbol),pIC50 (HCC827; class symbol),pIC50 (A431; class symbol),pIC50 (H1975; class symbol),pIC50 (A549; number after the class symbol),pIC50 ([1]; number after the class symbol),pIC50 ([2]; number after the class symbol),pIC50 (PC-9; number after the class symbol),pIC50 (HCC827; number after the class symbol),pIC50 (A431; number after the class symbol),pIC50 (H1975; number after the class symbol),HL [3] [h],AUC(0-inf) ([3]; rat) [ng·h/mL],AUC(0-t) ([3]; rat) [ng·h/mL],Cmax ([3]; rat) [ng/mL],MRT last ([3]; rat) [h],Tmax ([3]; rat) [h]
CCc1cc(Nc2ncc(Cl)c(Nc3ccccc3P(C)(C)=O)n2)c(OC)cc1N1CCC(N(C)C(=O)CN2CCC(c3cc4c(cc3F)c(N3CCC(=O)NC3=O)nn4C)C(F)(F)C2)CC1 (stereo not drawn) [TC-089],< 6.00,7.00 to 8.00,7.00 to 8.00,6.00 to 7.00,6.00 to 7.00,< 6.00,7.00 to 8.00,–,–,–,–,–,–,–,–,–,–,–,–,–
COc1cc(N2CCN(C(=O)CN3CCC(c4cc5c(cc4F)c(N4CCC(=O)NC4=O)nn5C)C(F)(F)C3)CC2)ccc1Nc1ncc(Cl)c(Nc2ccccc2P(C)(C)=O)n1 (stereo not drawn) [TC-211],< 6.00,7.00 to 8.00,7.00 to 8.00,6.00 to 7.00,6.00 to 7.00,< 6.00,6.00 to 7.00,–,–,–,–,–,–,–,–,–,–,–,–,–
CCc1cc(Nc2ncc(Br)c(Nc3ccccc3P3(=O)CCCC3)n2)c(OC)cc1N1CC2(CCN(C(=O)CN3CCC(c4cc5c(cc4F)c(N4CCC(=O)NC4=O)nn5C)CC3)CC2)C1 [TB-008],6.00 to 7.00,7.00 to 8.00,7.00 to 8.00,6.00 to 7.00,7.00 to 8.00,6.00 to 7.00,7.00 to 8.00,–,–,–,–,–,–,–,–,–,–,–,–,–
CCc1cc(Nc2ncc(Cl)c(Nc3ccccc3P(C)(C)=O)n2)c(OC)cc1N1CC2(CCN(C(=O)CN3CCC(c4cc5c(cc4F)c(N4CCC(=O)NC4=O)nn5C)C(F)(F)C3)C2)C1 (stereo not drawn) [TC-105],6.00 to 7.00,7.00 to 8.00,7.00 to 8.00,6.00 to 7.00,7.00 to 8.00,6.00 to 7.00,6.00 to 7.00,–,–,–,–,–,–,–,–,–,–,–,–,–
CCc1cc(Nc2ncc(Cl)c(Nc3ccccc3P(C)(C)=O)n2)c(OC)cc1N1CCC2(CC1)CN(C(=O)CN1CCC(c3cc4c(cc3F)c(N3CCC(=O)NC3=O)nn4C)C(F)(F)C1)C2 (stereo not drawn) [TC-225],6.00 to 7.00,7.00 to 8.00,7.00 to 8.00,6.00 to 7.00,6.00 to 7.00,< 6.00,6.00 to 7.00,6.02,7.87,7.78,6.36,6.24,5.79,6.54,–,–,–,–,–,–
CCc1cc(Nc2ncc(Br)c(Nc3ccc(OC4CC4)cc3P(C)(C)=O)n2)c(OC)cc1N1CC2(CCN(C(=O)CN3CCC(c4cc5c(cc4F)c(N4CCC(=O)NC4=O)nn5C)C(F)(F)C3)CC2)C1 (stereo not drawn) [TC-232],< 6.00,> 8.00,> 8.00,6.00 to 7.00,7.00 to 8.00,< 6.00,7.00 to 8.00,–,–,–,–,–,–,–,–,–,–,–,–,–
CCc1cc(Nc2ncc(Cl)c(Nc3ccccc3P(C)(C)=O)n2)c(OC)nc1N1CCN(C(=O)CN2CCC(c3cc4c(cc3F)c(N3CCC(=O)NC3=O)nn4C)C(F)(F)C2)CC1 (stereo not drawn) [TC-115],6.00 to 7.00,7.00 to 8.00,7.00 to 8.00,6.00 to 7.00,6.00 to 7.00,< 6.00,6.00 to 7.00,–,–,–,–,–,–,–,–,–,–,–,–,–
"COc1cc(N2CCN(C(=O)CN3CCC(c4ccc5c(N6CCC(=O)NC6=O)nn(C)c5c4)CC3)CC2)ccc1Nc1ncc(Cl)c(Nc2ccccc2)n1 [DZL-2, reference compound]",6.00 to 7.00,–,–,6.00 to 7.00,6.00 to 7.00,–,6.00 to 7.00,6.54,–,–,6.21,6.58,–,6.66,–,–,–,–,–,–
CCc1cc(Nc2ncc(Cl)c(Nc3ccccc3P(C)(C)=O)n2)c(OC)cc1N1CCN(C(=O)CN2CCC(c3ccc4c(N5CCC(=O)NC5=O)nn(C)c4c3)C(F)(F)C2)CC1 (stereo not drawn) [TC-215],6.00 to 7.00,> 8.00,> 8.00,6.00 to 7.00,6.00 to 7.00,< 6.00,6.00 to 7.00,6.49,8.25,8.28,6.19,6.64,5.97,6.78,–,–,–,–,–,–
CCc1cc(Nc2ncc(Cl)c(Nc3ccccc3P(C)(C)=O)n2)c(OC)cc1N1CCN(CCN2CCC(c3cc4c(cc3F)c(N3CCC(=O)NC3=O)nn4C)C(F)(F)C2)CC1 (stereo not drawn) [TC-099],–,–,–,–,–,–,–,–,–,–,–,–,–,–,7.86,9130,7840,649,7.79,2.67
